We go through 2 compounds from paper PMC10794144, “A novel antibiotic class targeting the lipopolysaccharide transporter” (Nature, 2024).

One assay concerns A. baumannii. The assay is described as follows: microbe, parasite or virus in culture. The conditions noted are these: for MIC range: 10 MDR isolates; for MIC range / MIC: CAMHB, MCPs read at 80% growth inhibition; for MIC90 / MIC: Acinetobacter baumannii. In short, it runs like this:
(§1)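 MIC was taken as the lowest concentration without visible growth, or past which OD600 no longer fell. Testing followed CLSI M07 and M100 broth microdilution, using 0.5 McFarland-derived inocula in CAMHB (LB for A. baylyi isolates).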

The next assay has as its system P. aeruginosa ATCC 27853. The assay is described as follows: microbe, parasite or virus in culture. To be noted: Pseudomonas aeruginosa, ATCC27853, CAMHB; mode of at least three replicates (RO7036668 one replicate). The procedure, abridged:
as §1

In brackets after ≈: the same amount, converted by molar mass.

Regarding `CN1C(=O)[C@H](CCCCN)NC(=O)[C@H](CCCN)NCc2cccnc2Sc2c(Cl)ccc(-c3ccc(C(=O)O)cc3)c2CNC(=O)[C@@H]1Cc1c[nH]c2ccccc12` [RO7202110], in the assay on A. baumannii, the MIC range is given as ≤0.06 − 0.12 mg l^−1. This compound also came in with an MIC90 in the assay on A. baumannii of 0.12 µg/mL (≈ 0.145 µM). Moreover, the MIC against A. baumannii (ATCC17978, ATCC 17978, one replicate) was no more than 0.06 µg/mL; in the assay with A. baumannii (ATCC19606, ATCC 19606), no more than 0.06 µg/mL; against P. aeruginosa ATCC 27853 it was greater than 64 µg/mL.
Consider `CN1C(=O)[C@H](CCCN)NC(=O)[C@H](CCCN)NCc2ccccc2Sc2ccccc2CNC(=O)[C@@H]1Cc1c[nH]c2ccccc12` [RO7036668], for which the MIC range with A. baumannii fell in the range of 1 to 16 mg/L. Moreover, the MIC90 against A. baumannii was determined as 16 µg/mL (≈ 24.4 µM). Besides, the MIC in the assay with A. baumannii (ATCC19606, ATCC 19606) was 4 µg/mL (≈ 6.1 µM); in the assay with P. aeruginosa ATCC 27853, greater than 64 µg/mL.
